Tested on: CD34^+ mPB cells
Experiment: Effect of garcinol and VPA on medium performance: 7-day expansion of CD34+ mPB cells in medium ± VPA or garcinol
Assay type: cell-based
Parameters: key to % CD34^+CD90^+ / Fold TNC / % CD34^+ / Fold CD34^+: (+) is baseline; (++) or greater improvement; (*) denotes no data (the cells died when garcinol was added to ACF)
Conditions: for % CD34^+CD90^+ / Fold TNC / % CD34^+ / Fold CD34^+: day 7, three donors
Experimental: In vitro expansion. Enriched CD34^+ cells from three donors of human mobilized peripheral blood (mPB, AllCells) were cultured in the following serum free media: HSC Medium (as provided herein), and the commercially available Stem Cell Growth Medium (SCGM, CellGenix GmbH), STEMSPAN™ Animal Component Free (ACF, STEMCELL Technologies), and STEMPRO™ 34 (Thermo Fisher Scientific). All media were supplemented with 100 ng/mL SCF, 100 ng/mL FLT-3L, 100 ng/mL TPO, 50 ng/mL IL-3, and 20 ng/mL IL-6 (all provided by Thermo Fisher Scientific). HSC expansion was initiated by culturing 5×10^3 CD34^+ cells/mL in a 48 well plate for 7 days in a humidified 37° C., 5% CO2 incubator. At day 7, total nucleated cell (TNC) number and % viability were assessed using a Countess II cell counter (Thermo Fisher Scientific), and cell phenotype was performed by flow cytometry.
Flow cytometry analysis. TNC were washed in phosphate-buffered saline (PBS) and incubated for 20 minutes at room temperature with LIVE/DEAD® Fixable Yellow stain in PBS. Cells were washed in flow cytometry staining buffer, and incubated with a cocktail of monoclonal antibodies against human cell surface antigens: CD34 PE-Cy7, CD90 APC, CD45RA Pacific Blue, for 30 minutes at 4° C. Cells were analyzed on a Attune NxT flow cytometer (Thermo Fisher Scientific), and FLOWJO® Software (version 7.6.5 Becton Dickinson).
Effect of small molecules to medium performance. To assess the contribution of valproic acid (VPA) and garcinol to competitor media, the small molecules were added to SCGM and STEMSPAN™ ACF either in combination or individually at the final concentration present in HSC Medium. To address whether there is a reduction in performance of HSC Medium when the small molecules were excluded from the formulation, either VPA or garcinol were removed during manufacture. CD34^+ mPB cells from three donors were cultured as described above (Example 1) in medium±VPA or garcinol, and compared with HSC medium, STEMSPAN™ ACF, SCGM or STEMSPAN™ ACF with STEMSPAN™ CD34^+ Expansion Supplement (10×). At day 7, cells were assessed for TNC, % viability, CD34^+, CD34^+CD90^+CD45RA^− cells as described above. To pool data points (CD34^+ expansion, TNC expansion) from the three donors, all conditions were normalized to SCGM media the standard error calculated. For pooling of % CD34^+ and % CD34^+CD90^+CD45RA^− data points in the three donors, the values were averaged and standard error calculated.

[1] = in HSC Medium made with the named small molecule(s) only
[2] = small molecule(s) added to SCGM
[3] = small molecule(s) added to ACF (STEMSPAN ACF)

Structure (SMILES)	% CD34^+CD90^+ [1]	Fold TNC [1]	% CD34^+ [2]	% CD34^+CD90^+ [2]	Fold CD34^+ [2]	Fold TNC [2]	performance (HSC expansion) (added to ACF)	% CD34^+CD90^+CD45RA^− (added to competitor media)	expansion of HSC / performance (added to competitor media (SCGM, STEMSPAN ACF))	% CD34^+ [1]	Fold CD34^+ [1]	% CD34^+ [3]	% CD34^+CD90^+ [3]
C=C(C)[C@@H](CC=C(C)C)C[C@@]12C[C@@H](CC=C(C)C)C(C)(C)[C@@](CC=C(C)C)(C(=O)C(C(=O)c3ccc(O)c(O)c3)=C1O)C2=O [Garcinol, garcinol]	+	+	+	+	+	+	–	–	–	–	–	–	–
CCCC(CCC)C(=O)O [VPA, valproic acid]	–	+	++	++	++	++	boosted performance to HSC Medium (with garcinol and VPA) levels	improved	improved expansion of HSC	++	+	++	++
